According to PMC12638379, “An innovative approach to development of new pyrazolylquinolin-2-one hybrids as dual EGFR and BRAF^V600E inhibitors” (Molecular Diversity, 2025):
Values joined by “and” are separate entries in the source; they are usually repeats but may differ in a detail not shown here. Equal values may be shown once. Read-outs that look alike come from different tables or passages of the source.

Columns and labels:
[1] = system: NCI 60 cancer cell lines; test: NCI anticancer screening over a panel of 60 cancer cells, single concentration 10 µM; type: cell-based, human; details: for inhibition at 10 µM: Homo sapiens, read-out: % Growth Inhibition (GI %)
In short: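 Run under the NCI Compound Evaluation Branch protocol, each compound was tested once at 10 µM. The panel comprised 60 cancer cell lines of diverse tissue origin, including leukemia, lung, colon, CNS, renal, ovarian, breast and prostate.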

[2] = system: breast cancer (T47D) cell line; test: MTT antiproliferative assay, T-47D
Procedure: The median inhibitory concentration (IC50) and GI50 (average IC50) against the three cancer cell lines were calculated. See Appendix B.
Cells were cultured using DMEM (Invitrogen/Life Technologies) supplemented with 10% FBS (Hyclone,), 10 ug/ml of insulin (Sigma), and 1% penicillin-streptomycin. Plate cells (cells density 1.2 – 1.8 × 10,000 cells/well) in a volume of 100µl complete growth medium + 100 ul of the tested compound per well in a 96-well plate for 24 hours before the MTT assay. In atypical experiment, one hundred micro liters of serial 10-fold diluted sterile tested compounds were added to final concentrations of […] using culture media as negative control. After 24 h of culture incubation and supernatants discarded. HOP-92 lung, MOLT-4 leukemia, and T-47D breast cell lines were trypsinized and washed with Ca2/Mg2 free PBS (pH 7.2). we removed cultures from incubator into laminar flow hood or other sterile work area. […] Each test should include a blank containing complete medium without cells. […] Add reconstituted MTT in an amount equal to 10% of the culture medium volume. Return cultures to incubator for 2-4 hours depending on cell type and maximum cell density. […] Spectrophotometrically absorbance was measured at a wavelength of 570 nm. Measure the background absorbance of multiwell plates at 690 nm and subtract from the […] measurement. Results from all experiments were recorded and the percentage of viable cells was calculated.

[3] = system: leukemia (MOLT-4) cell line; test: MTT antiproliferative assay, MOLT-4; type: cell-based, human; details: for IC50: read-out: Antiproliferative activity IC50 ± SEM, MOLT-4
Procedure: After 24 h of culture incubation and supernatants discarded.

[4] = molecular target: T1, EGFR (Homo sapiens, UniProt P00533); test: EGFR inhibitory assay; type: biochemical; details: for %inh: EGFR, unit not given
T1 construct: EGFR cytoplasmic domain (EGFR-CD, amino acids 645–1186); His6 (N); made in house; host or cells: Sf-9 insect cells (baculovirus)

[5] = molecular target: BRAF^V600E (Homo sapiens, UniProt P15056, V600E); test: BRAF^V600E inhibitory assay (B-Raf (V600E) Kinase Assay); type: biochemical; details: read-out: BRAF^V600E inhibition IC50 ± SEM
[6] = MTT cytotoxicity on normal cell line WI-38; details: human, WI-38 normal cells, % viability
[7] = system: normal cell line WI-38; test: MTT cytotoxicity on normal cell line WI-38

T1 sequence (P00533 669-1210): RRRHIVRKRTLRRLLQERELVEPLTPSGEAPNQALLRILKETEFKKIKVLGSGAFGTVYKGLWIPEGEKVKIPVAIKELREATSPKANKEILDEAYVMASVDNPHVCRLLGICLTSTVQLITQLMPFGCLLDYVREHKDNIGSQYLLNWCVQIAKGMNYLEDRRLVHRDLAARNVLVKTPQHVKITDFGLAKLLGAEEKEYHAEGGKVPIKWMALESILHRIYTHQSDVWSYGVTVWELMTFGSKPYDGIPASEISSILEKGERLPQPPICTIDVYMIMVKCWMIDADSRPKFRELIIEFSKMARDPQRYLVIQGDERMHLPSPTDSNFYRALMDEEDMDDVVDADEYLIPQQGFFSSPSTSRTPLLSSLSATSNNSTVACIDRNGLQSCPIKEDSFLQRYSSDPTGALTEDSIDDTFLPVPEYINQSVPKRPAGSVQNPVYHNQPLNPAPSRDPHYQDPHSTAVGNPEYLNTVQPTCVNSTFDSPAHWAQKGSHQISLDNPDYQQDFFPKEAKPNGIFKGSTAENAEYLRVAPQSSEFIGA
Sequence of BRAF^V600E (P15056 whole entry V600E): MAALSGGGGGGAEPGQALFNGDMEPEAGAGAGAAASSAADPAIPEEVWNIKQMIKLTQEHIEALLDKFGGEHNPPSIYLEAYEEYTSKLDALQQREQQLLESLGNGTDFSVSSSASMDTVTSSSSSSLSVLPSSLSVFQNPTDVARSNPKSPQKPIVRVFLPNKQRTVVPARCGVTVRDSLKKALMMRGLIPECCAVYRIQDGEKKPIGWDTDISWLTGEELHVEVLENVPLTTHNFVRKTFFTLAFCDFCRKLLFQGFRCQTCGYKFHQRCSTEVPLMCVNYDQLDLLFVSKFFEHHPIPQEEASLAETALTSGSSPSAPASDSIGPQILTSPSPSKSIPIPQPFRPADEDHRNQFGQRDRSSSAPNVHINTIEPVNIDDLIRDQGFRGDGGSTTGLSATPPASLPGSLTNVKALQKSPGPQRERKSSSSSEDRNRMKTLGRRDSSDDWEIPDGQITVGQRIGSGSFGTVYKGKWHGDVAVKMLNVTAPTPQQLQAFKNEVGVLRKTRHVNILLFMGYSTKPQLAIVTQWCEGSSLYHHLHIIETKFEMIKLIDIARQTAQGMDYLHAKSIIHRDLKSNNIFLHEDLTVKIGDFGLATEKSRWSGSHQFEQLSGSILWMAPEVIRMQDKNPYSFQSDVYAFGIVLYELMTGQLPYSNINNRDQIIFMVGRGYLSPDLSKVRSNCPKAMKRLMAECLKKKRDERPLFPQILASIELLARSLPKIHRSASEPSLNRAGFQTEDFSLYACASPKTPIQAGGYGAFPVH

With `C/C(=N\Nc1ccc(S(N)(=O)=O)cc1)c1cnn(-c2cc(=O)[nH]c3ccc(Br)cc23)c1C` [Compound 4e, (E)-4-(2-(1-(1-(6-bromo-2-oxo-1,2-dihydroquinolin-4-yl)-5-methyl-1H-pyrazol-4-yl)ethylidene)hydrazineyl)benzenesulfonamide] the “activity in NCI screening (mean GI%)” value ([1]; 10 µM, over the NCI cancer cell lines) was “remarkable activity over the most NCI cancer cell lines”, the inhibition at 10 µM ([1]; 786-0, Renal cancer 786-0, 10 μM) was 14.1% and the inhibition at 10 µM ([1]; A498, Renal cancer A498, 10 μM) was < 5%. The inhibition at 10 µM ([1]; A549, Non-small cell lung cancer A549/ATCC, 10 μM) was < 5%, the inhibition at 10 µM ([1]; ACHN, Renal cancer ACHN, 10 μM) was 19% and the inhibition at 10 µM ([1]; BT-549, Breast cancer BT-549, 10 μM) was 62.3%. It also gave an inhibition at 10 µM ([1]; CAKI-1, Renal cancer CAKI-1, 10 μM) of 23.3%, an inhibition at 10 µM ([1]; CCRF-CEM, Leukemia CCRF-CEM, 10 μM) of 91.8% and an inhibition at 10 µM ([1]; COLO 205, Colon cancer COLO 205, 10 μM) of 14.5%. For the same compound, the inhibition at 10 µM ([1]; DU-145, Prostate cancer DU-145, 10 μM) was 22.1%, the inhibition at 10 µM ([1]; EKVX, Non-small cell lung cancer EKVX, 10 μM) was 27.9% and the inhibition at 10 µM ([1]; HCC 2998, Colon cancer HCC-2998, 10 μM) was 26.6%. The inhibition at 10 µM ([1]; HCT-15, Colon cancer HCT-15, 10 μM) was 8.8%, the inhibition at 10 µM ([1]; HCT-116, Colon cancer HCT-116, 10 μM) was 41.5% and the inhibition at 10 µM ([1]; HL-60, Leukemia HL-60(TB), 10 μM) was 15.2%. For the same compound, the inhibition at 10 µM ([1]; HOP-62, Non-small cell lung cancer HOP-62, 10 μM) was 36.6%, the inhibition at 10 µM ([1]; HOP-92, Non-small cell lung cancer HOP-92, 10 μM) was 102% and the inhibition at 10 µM ([1]; HT-29, Colon cancer HT29, 10 μM) was < 5%. For the same compound, the inhibition at 10 µM ([1]; Hs-578T, Breast cancer HS 578T, 10 μM) was 71.6%, the inhibition at 10 µM ([1]; IGROV-1, Ovarian cancer IGROV1, 10 μM) was 43% and the inhibition at 10 µM ([1]; K562, Leukemia K-562, 10 μM) was 65%. It also gave an inhibition at 10 µM ([1]; KM12, Colon cancer KM12, 10 μM) of 46.3%, an inhibition at 10 µM ([1]; LOX IMVI, Melanoma LOX IMVI, 10 μM) of 61.8% and an inhibition at 10 µM ([1]; Leukemia SR, 10 μM) of 95.9%. It also gave an inhibition at 10 µM ([1]; MCF7, Breast cancer MCF7, 10 μM) of 76.8%, an inhibition at 10 µM ([1]; MDA-MB-231, Breast cancer MDA-MB-231/ATCC, 10 μM) of 68.5% and an inhibition at 10 µM ([1]; MDA-MB-435, Melanoma MDA-MB-435, 10 μM) of 95.6%. The inhibition at 10 µM ([1]; MDA-MB-468, Breast cancer MDA-MB-468, 10 μM) was 111%, the inhibition at 10 µM ([1]; MOLT-4, Leukemia MOLT-4, 10 μM) was 81.5% and the inhibition at 10 µM ([1]; Melanoma M14, 10 μM) was 26.9%. The inhibition at 10 µM ([1]; Melanoma MALM-3M, 10 μM) was 78.3%, the inhibition at 10 µM ([1]; NCI-H23, Non-small cell lung cancer NCI-H23, 10 μM) was 30.1% and the inhibition at 10 µM ([1]; NCI-H226, Non-small cell lung cancer NCI-H226, 10 μM) was 37.7%. It also gave an inhibition at 10 µM ([1]; NCI-H322M, Non-small cell lung cancer NCI-H322M, 10 μM) of 22.3%, an inhibition at 10 µM ([1]; NCI-H460, Non-small cell lung cancer NCI-H460, 10 μM) of 22.1% and an inhibition at 10 µM ([1]; NCI-H522, Non-small cell lung cancer NCI-H522, 10 μM) of 94.9%. The inhibition at 10 µM ([1]; NCI/ADR-RES, Ovarian cancer NCI/ADR-RES, 10 μM) was 9.87%, the inhibition at 10 µM ([1]; OVCAR-3, Ovarian cancer OVCAR-3, 10 μM) was 43.8% and the inhibition at 10 µM ([1]; OVCAR-4, Ovarian cancer OVCAR-4, 10 μM) was 32.3%. The inhibition at 10 µM ([1]; OVCAR-5, Ovarian cancer OVCAR-5, 10 μM) was 18.6%, the inhibition at 10 µM ([1]; OVCAR-8, Ovarian cancer OVCAR-8, 10 μM) was 19.5% and the inhibition at 10 µM ([1]; Prostate cancer PC-3, 10 μM) was 41.6%. For the same compound, the inhibition at 10 µM ([1]; RPMI-8226, Leukemia RPMI-8226, 10 μM) was 25.7%, the inhibition at 10 µM ([1]; RXF 393, Renal cancer RXF 393, 10 μM) was 31.4% and the inhibition at 10 µM ([1]; SF-268, CNS Cancer SF-268, 10 μM) was 42.7%. For the same compound, the inhibition at 10 µM ([1]; SF-295, CNS Cancer SF-295, 10 μM) was 8.09%, the inhibition at 10 µM ([1]; SF-539, CNS Cancer SF-539, 10 μM) was 58.4% and the inhibition at 10 µM ([1]; SK-MEL-2, Melanoma SK-MEL-2, 10 μM) was 80%. The inhibition at 10 µM ([1]; SK-MEL-5, Melanoma SK-MEL-5, 10 μM) was 45%, the inhibition at 10 µM ([1]; SK-MEL-28, Melanoma SK-MEL-28, 10 μM) was 65.3% and the inhibition at 10 µM ([1]; SK-OV-3, Ovarian cancer SK-OV-3, 10 μM) was 30.8%. It also gave an inhibition at 10 µM ([1]; SN12C, Renal cancer SN12C, 10 μM) of 38.8%, an inhibition at 10 µM ([1]; SNB-19, CNS Cancer SNB-19, 10 μM) of 54% and an inhibition at 10 µM ([1]; SNB-75, CNS Cancer SNB-75, 10 μM) of 78%. For the same compound, the inhibition at 10 µM ([1]; SW-620, Colon cancer SW-620, 10 μM) was 24.3%, the inhibition at 10 µM ([1]; T47D, Breast cancer T-47D, 10 μM) was 82.5% and the inhibition at 10 µM ([1]; TK-10, Renal cancer TK-10, 10 μM) was < 5%. It also gave an inhibition at 10 µM ([1]; U-251, CNS Cancer U251, 10 μM) of 62.1%, an inhibition at 10 µM ([1]; UACC-62, Melanoma UACC-62, 10 μM) of 88.6% and an inhibition at 10 µM ([1]; UACC-257, Melanoma UACC-257, 10 μM) of 33.7%. For the same compound, the inhibition at 10 µM ([1]; UO-31, Renal cancer UO-31, 10 μM) was 45.2%, the viability at 0.4 µM ([2]; Homo sapiens, T47D, 0.4uM (log -0.41)) was 74% and the viability at 6.3 µM ([2]; Homo sapiens, T47D, 6.3uM (log 0.796)) was 52.1%. The viability at 25 µM ([2]; Homo sapiens, T47D, 25uM (log 1.398)) was 42.1%, the viability at 100 µM ([2]; Homo sapiens, T47D, 100uM (log 2), MTT absorbance 450 nm) was 32.1% and the IC50 ([2]; Homo sapiens, T47D, read-out: Antiproliferative activity IC50 ± SEM, T-47D, MTT) was 8.02 ± 0.31 µM. The “% viability” value ([2]; T47D, 1.6ug (log 0.193)) was 61.86%, the “% viability” value ([2]; T47D, 25uM (log 1.398), listed as Ws5, 25 µM) was 42.072% and the IC50 ([2]; read-out: Antiproliferative activity IC50 ± SEM, T-47D, MTT) was 8.62 ± 0.34 µM. For the same compound, the IC50 ([3]; Homo sapiens, MOLT-4, MTT) was 8.62 ± 0.34 µM, the “% viability” value ([3]; MOLT-4, 0.4ug (log conc. -0.41)) was 65.87% and the “% viability” value ([3]; MOLT-4, 1.6ug (log conc. 0.193), listed as Ws5) was 58.42% and 58.419%. The “% viability” value ([3]; MOLT-4, 6.3ug (log conc. 0.796), listed as Ws5) was 52.84% and 52.844%, the “% viability” value ([3]; MOLT-4, 25ug (log conc. 1.398), listed as Ws5) was 44.14% and 44.141% and the “% viability” value ([3]; MOLT-4, 100ug (log conc. 2)) was 35.495%. The IC50 ([3]; MTT) was 8.02 ± 0.31 µM, the “%inh” value ([4]; conc 0.01 (log -2)) was 37% and the “%inh” value ([4]; conc 0.1 (log -1)) was 50.6%. The “%inh” value ([4]; conc 1 (log 0)) was 75.8%, the “%inh” value ([4]; conc 10 (log 1)) was 88.1% and the “%inh” value ([4]; conc 100 (log 2)) was 94.2%. It also gave an IC50 ([4]; read-out: EGFR inhibition IC50 ± SEM) of 0.055 ± 0.002 µM, an IC50 [5] of 0.068 ± 0.003 µM and a viability at 24 h, 0.4 µM ([6]; WI38, 0.4uM (log conc. -0.41)) of 83.2%. For the same compound, the viability at 24 h, 1.6 µM ([6]; WI38, 1.6uM (log conc. 0.19)) was 70.8%, the viability at 24 h, 6.3 µM ([6]; WI38, 6.3uM (log conc. 0.8)) was 61% and the viability at 24 h, 25 µM ([6]; WI38, 25uM (log conc. 1.4)) was 50.4%. The viability at 24 h, 100 µM ([6]; WI38, 100uM (log conc. 2)) was 42.1%, the IC50 ([7]; Homo sapiens, read-out: Antiproliferative activity IC50 ± SEM) was 29.6 ± 1.18 µM and the “% viability” value ([7]; WI38, 0.4uM (log conc. -0.41), listed as Ws5, 0.4 µM) was 83.1677%. The “% viability” value ([7]; WI38, 1.6uM (log conc. 0.19), listed as Ws5, 1.6 µM) was 70.8075%, the “% viability” value ([7]; WI38, 6.3uM (log conc. 0.8), listed as Ws5, 6.3 µM) was 60.9938% and the “% viability” value ([7]; WI38, 100uM (log conc. 2), listed as Ws5, 100 µM) was 42.1118%.
